Series [1] is described as follows: Hygroscopicity test. The format is physicochemical. As to conditions: 30° C., one week; for hygroscopicity (in words): any tested relative humidity. As for the experimental part: Hygroscopicity tests of the salts were performed by keeping exact weight samples of the different salts at varied humidity at 30° C. After one week, the samples were weighed again and based on the original weight the percentage weight difference was calculated.
In the followed hygroscopicity test, the change in weight was measured after each acidic salt of (+)-3-(2,3-difluorophenyl)-3-methoxypyrrolidine was exposed for a week under the condition of 30° C. and different relative humidities (RH) 0 to 97%.

For series [2], the target named is T1, human sigma 1 receptor (Homo sapiens, UniProt Q99720).
T1 construct: Cell membrane homogenates (150 μg protein) were incubated for 120 min at 37° C. with 15 nM; endogenous in cells; inferred to be Jurkat human T lymphocytes from the cited method (Ganapathy et al. 1999)
T1 sequence (Q99720 whole entry): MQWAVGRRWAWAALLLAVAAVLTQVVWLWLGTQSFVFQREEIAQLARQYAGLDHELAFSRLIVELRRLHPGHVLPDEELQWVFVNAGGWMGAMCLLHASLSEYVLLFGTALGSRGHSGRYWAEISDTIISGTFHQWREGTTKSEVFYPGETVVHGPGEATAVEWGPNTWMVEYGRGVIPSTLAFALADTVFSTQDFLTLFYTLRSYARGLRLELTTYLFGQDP
The experiment in a line: In vitro competition binding assay, human sigma 1 receptor. Conditions: 1.0 E-5 M test compound, 15 nM [3H] pentazocine, duplicate, mean value; read-out: Percent inhibition of the control radioligand specific binding. As for the experimental part:
The binding affinity of the fumaric acid salt of (+)-3-(2,3-difluorophenyl)-3-methoxypyrrolidine at the human sigma 1 receptor was determined by a competition binding assay similar to what is described in […], M. E., PRASAD, P. D., HUANG, W., SETH, P., LEIBACH, F. H. and […], V. (1999), Molecular and ligand-binding characterization of the σ-receptor in the Jurkat human T lymphocyte cell line, J. Pharmacol. Exp. Ther., 289: 251.
Cell membrane homogenates (150 μg protein) were incubated for 120 min at 37° C. with 15 nM [^3H] pentazocine in the absence or presence of the test compound in a buffer containing 50 mM Tris-HCl (pH 8).
Nonspecific binding was determined in the presence of 10 μM haloperidol.
Following incubation, the samples were filtered under vacuum through glass fiber filters (GF/B, Packard) presoaked with 0.3% PEI and rinsed several times with ice-cold 50 mM Tris-HCl using a 96-sample cell harvester (Unifilter, Packard). The filters were dried then counted for radioactivity in a scintillation counter (Topcount, Packard) using a scintillation cocktail (Microscint 0, Packard).
The results were expressed as a percent inhibition of the control radioligand specific binding.
The standard reference compound was haloperidol, which was tested in each experiment at several concentrations to obtain a competition curve from which its IC50 value was calculated. […]

Series [3] can be described thus: Crystalline phase at tested relative humidity. The format is physicochemical. Conditions: any tested relative humidity.
The nature of series [4]: Flask method water solubility test. It is filed as physicochemical. Conditions: saturated solution equilibrated at least 24 hours, room temperature. As for the experimental part: In some cases, a further water solubility test (Flask method water solubility test) was performed as follows. An excess of salt was added to water. The mixture was equilibrated (shaking) for at least 24 hours thereby providing a saturated salt solution. Then the saturated solution was clear-filtered and transferred into a clean pre-weighed flask (mv). The mass of flask+saturated solution (mvs) was recorded. The solvent was evaporated under reduced pressure until constant mass. Flask containing dried residue was weighed (mvdr). The solubility expressed as “grams of solute/kg of solvent”, i.e. “grams of salt/kg of solvent”, was calculated according to the equation: […]
(mvdr-mv) is the weight difference in kg between (i) the mass of the flask containing dried residue after evaporation of the solvent and (ii) the mass of the flask, and
(mvs-mvdr) is the weight difference in kg between (i) the mass of the flask including the saturated salt solution and (ii) the mass of the flask containing the dried residue.

A short description of series [5]: Regular water solubility test. It is filed as physicochemical. Conditions: thermodynamic from solid, room temperature.
Description: Water solubility tests for the salts as described herein were performed as follows unless otherwise stated. 0.05 g of each salt was weighed in a flask and the mass of flask+salt (m-vs) was recorded. Water was slowly added dropwise into the flask with salt until full dissolution was achieved as observed by the naked eye. The mass of flask+salt+solvent (m-sys) was recorded.
(s) stands for the weight of the salt measured in kg,
(m-sys) stands for the mass of the flask+salt+solvent measured in kg, and
(m-vs) stands for the mass of the flask+salt measured in kg.

With `CO[C@]1(c2cccc(F)c2F)CCNC1.O=C(O)/C=C/C(=O)O` [Example 7, fumarate Salt of (+)-3-(2,3-difluorophenyl)-3-methoxypyrrolidine], the “hygroscopicity (in words)” value in series [1] (listed as Example 11) was “does not adsorb or desorb water at any humidity”; in series [1] (listed as salt of Formula IIb) it was “not being hygroscopic”. The “Weight difference (%)” value in series [1] (relative humidity 0%) was −0.07%; in series [1] (relative humidity 6%), −0.14%; in series [1] (relative humidity 11%), 0.11%; in series [1] (relative humidity 22%), 0.15%; in series [1] (relative humidity 32%) it was 0.13%; in series [1] (relative humidity 43%) it was 0.07%. Besides, the “Weight difference (%)” value in series [1] (relative humidity 56%) amounted to 0.19%; in series [1] (relative humidity 73%) it was 0.06%; in series [1] (relative humidity 84%), 0.00%; in series [1] (relative humidity 97%) it was 0.16%. Moreover, in series [2], the inhibition (in general, the change of the read-out against control, counted positive when it falls) at 10 µM came to 79.1%. The “change of crystalline phase with humidity (in words)” value in series [3] is given as “not changing in its crystalline phase at any tested relative humidity”. For the same compound, the solubility – broadly, the dissolved amount per volume that the medium holds – in series [4] (water, thermodynamic from solid) was determined as 74.1 mg/mL; in series [5] it was 34 mg/mL.

Take `COC1(c2cccc(F)c2F)CCNC1.Cl` (stereo not drawn) [Example 8, Hydrochloric Acid Salt of (+)-3-(2,3-difluorophenyl)-3-methoxypyrrolidine]: the “Weight difference (%)” value was 0.00% in series [1] (relative humidity 0%); −0.07% in series [1] (relative humidity 6%); −0.06% in series [1] (relative humidity 11%); −0.15% in series [1] (relative humidity 22%); 0.00% in series [1] (relative humidity 32%); −0.13% in series [1] (relative humidity 43%). For the same compound, the “Weight difference (%)” value is on record as −0.14% in series [1] (relative humidity 56%), −0.13% in series [1] (relative humidity 73%), 25.77% in series [1] (relative humidity 84%) and 99.12% in series [1] (relative humidity 97%).

On to `COC1(c2cccc(F)c2F)CCNC1.O=C(O)C(O)C(O)C(=O)O` [Example 9, L-Tartaric acid salt of (+)-3-(2,3-difluorophenyl)-3-methoxypyrrolidine], for which the “Weight difference (%)” value was −2.36% in series [1] (relative humidity 0%); −0.67% in series [1] (relative humidity 6%); −0.14% in series [1] (relative humidity 11%); 2.40% in series [1] (relative humidity 22%); 2.16% in series [1] (relative humidity 32%); 1.71% in series [1] (relative humidity 43%). In addition, the “Weight difference (%)” value in series [1] (relative humidity 56%) stood at 1.99%; in series [1] (relative humidity 73%), 1.90%; in series [1] (relative humidity 84%), 2.13%; in series [1] (relative humidity 97%) it was 2.39%.

For `COC1(c2cccc(F)c2F)CCNC1.O=C(O)C[C@H](O)C(=O)O` [Example 13, L-Malic Acid Salt of (+)-3-(2,3-difluorophenyl)-3-methoxypyrrolidine], the “Weight difference (%)” value is listed as −0.07% in series [1] (relative humidity 0%); 0.00% in series [1] (relative humidity 6%); −0.13% in series [1] (relative humidity 11%); −0.08% in series [1] (relative humidity 22%); 0.00% in series [1] (relative humidity 32%); −0.22% in series [1] (relative humidity 43%). Also, the “Weight difference (%)” value is recorded as −0.06% in series [1] (relative humidity 56%), 0.07% in series [1] (relative humidity 73%), 0.40% in series [1] (relative humidity 84%) and 34.37% in series [1] (relative humidity 97%).

Turning to `COC1(c2cccc(F)c2F)CCNC1.O=C(O)C(=O)O` (stereo not drawn) [Reference Example 19, oxalic Acid Salt of (+)-3-(2,3-difluorophenyl)-3-methoxypyrrolidine, reference compound], the “Weight difference (%)” value is given as 0.00% in series [1] (relative humidity 0%); 0.00% in series [1] (relative humidity 6%); −0.21% in series [1] (relative humidity 11%); 0.00% in series [1] (relative humidity 22%); 0.11% in series [1] (relative humidity 32%); −0.05% in series [1] (relative humidity 43%). The “Weight difference (%)” value in series [1] (relative humidity 56%) was 0.00%; in series [1] (relative humidity 73%) it was −0.05%; in series [1] (relative humidity 84%) it was −0.15%; in series [1] (relative humidity 97%) it was 0.26%. In addition, the “Solubility in water (Flask method water solubility test)” value in series [4] is on record as 28 mg/mL.
